In US20230025510A1, “BIARYL ETHER-TYPE QUINAZOLINE DERIVATIVES” (DAIICHI SANKYO COMPANY, LIMITED, priority 2018, published 2023):

Columns and labels:
Assay type in all cases: cell-based
Ba/F3-Mock cells = experiment: Cell proliferation suppression test (CellTiter-Glo, GI50), Ba/F3-Mock; details: Mus musculus, BaF3, 72 h, 5 ng/mL IL-3, 3 days, N=4
Method: (§1) Cell proliferation suppression test Ba/F3-Mock, Ba/F3-EGFR WT, Ba/F3-EGFR ins. ASV, and Ba/F3-EGFR ins. SVD cell lines were cultured based on a culture medium of 10% FBS-containing RPMI 1640 supplemented with 1.5 ug/mL puromycin, and 5 ng/mL IL-3 and 100 ng/mL of EGF were further added to the culture solution for Ba/F3-Mock and Ba/F3-EGFR WT, respectively. The cells were cultured in a CO2 incubator set at 37° C., 5% CO2. Specimens prepared by dilution were seeded into 384-well tissue culture plates with Echo555 (Labcyte Inc.), and the cells were seeded thereto at 400 cells/well for Ba/F3-Mock, Ba/F3-EGFR WT, and Ba/F3-EGFR ins. SVD and at 200 cells/well for Ba/F3-EGFR ins. ASV (day 0), then they were cultured for an additional 3 days. On the day of the compound addition (day 0) and 3 days after the compound addition (day 3), ATP quantity was measured with CellTiter-Glo (registered trademark) 2.0 (Promega Corporation.), and used as an indicator of cell quantity (N=4). In the test, puromycin-free culture medium was used. Concentrations at which cell proliferation from day 0 to day 3 was inhibited by 50% (GIso) were calculated with EXCEL.

Ba/F3-EGFR WT cells = experiment: Cell proliferation suppression test (CellTiter-Glo, GI50), Ba/F3-EGFR WT; details: Mus musculus, 72 h, 100 ng/mL EGF, 3 days, N=4
Method: as §1

[1] = tested on: Ba/F3-EGFR ins. ASV cells; experiment: Cell proliferation suppression test (CellTiter-Glo, GI50), Ba/F3-EGFR ins. ASV; details: Mus musculus, 72 h, 3 days, N=4
Method: as §1

[2] = tested on: Ba/F3-EGFR ins. SVD cells; experiment: Cell proliferation suppression test (CellTiter-Glo, GI50), Ba/F3-EGFR ins. SVD; details: Mus musculus, 72 h, 3 days, N=4
Method: as §1

Structure (SMILES) | GI50 (Ba/F3-EGFR WT cells) [nM] | GI50 [1] [nM] | GI50 [2] [nM] | GI50 (Ba/F3-Mock cells) [nM]
COc1cc2ncnc(Nc3ccc(Oc4nn(CC(=O)NC(C)(C)C)cc4F)cc3F)c2cc1NC(=O)/C=C/CN(C)C [Example 46, (2E)-N-{4-[4-({1-[2-(tert-Butylamino)-2-oxoethyl]-4-fluoro-1H-pyrazol-3-yl}oxy)-2-fluoroanilino]-7-methoxyquinazolin-6-yl}-4-(dimethylamino)but-2-enamide] | 261 | 6.5 | 4.7 | 3090
COc1cc2ncnc(Nc3ccc(Oc4nn(CC(=O)NC(C)(C)C)cc4F)cc3F)c2cc1NC(=O)/C=C/CN1CC(F)C1 [Example 59, (2E)-N-{4-[4-({1-[2-(tert-Butylamino)-2-oxoethyl]-4-fluoro-1H-pyrazol-3-yl}oxy)-2-fluoroanilino]-7-methoxyquinazolin-6-yl}-4-(3-fluoroazetidin-1-yl)but-2-enamide] | 468 | 11.9 | 7.4 | > 10000
C=CC(=O)N1CCC(Oc2cc3c(Nc4cc(F)c(Oc5ccn(C(=O)NC(C)(C)C)n5)cc4F)ncnc3cc2OC)CC1 [Example 7, N-tert-Butyl-3-{2,5-difluoro-4-[(7-methoxy-6-{[1-(prop-2-enoyl)piperidin-4-yl]oxy}quinazolin-4-yl)amino]phenoxy}-1H-pyrazole-1-carboxamide] | 191 | 39.4 | 19.6 | 5900
C=CC(=O)N1CCC(Oc2cc3c(Nc4ccc(Oc5nc(-c6nnc(C(C)C)o6)cs5)cc4F)ncnc3cc2OC)CC1 [Example 33, 1-[4-({4-[2-Fluoro-4-({4-[5-(propan-2-yl)-1,3,4-oxadiazol-2-yl]-1,3-thiazol-2-yl}oxy)anilino]-7-methoxyquinazolin-6-yl}oxy)piperidin-1-yl]prop-2-en-1-one] | 163 | 11.3 | 5.8 | > 10000
COc1cc2ncnc(Nc3ccc(Oc4nn(CC(=O)NC(C)(C)C)cc4F)cc3Cl)c2cc1NC(=O)/C=C/CN1CCOCC1 [Example 54, (2E)-N-{4-[4-({1-[2-(tert-Butylamino)-2-oxoethyl]-4-fluoro-1H-pyrazol-3-yl}oxy)-2-chloroanilino]-7-methoxyquinazolin-6-yl}-4-(morpholin-4-yl)but-2-enamide] | 2890 | 33.4 | 50.6 | > 10000

The remaining compounds from weak to strong by GI50 (Ba/F3-EGFR WT cells), led by results:

GI50 (Ba/F3-EGFR WT cells) [nM] | GI50 [1] [nM] | GI50 [2] [nM] | Structure (SMILES) | GI50 (Ba/F3-Mock cells) [nM]
441 | 12.9 | 10.3 | COc1cc2ncnc(Nc3ccc(Oc4nn(CC(=O)NC(C)(C)C)cc4F)cc3Cl)c2cc1NC(=O)/C=C/CN1CCC(F)C1 (racemic) [Example 55, rac-(2E)-N-{4-[4-({1-[2-(tert-Butylamino)-2-oxoethyl]-4-fluoro-1H-pyrazol-3-yl}oxy)-2-chloroanilino]-7-methoxyquinazolin-6-yl}-4-(3-fluoropyrrolidin-1-yl)but-2-enamide] | 4290
276 | 20.5 | 13.7 | C=CC(=O)N1CCC(Oc2cc3c(Nc4ccc(Oc5nc(-c6ccc(CC)nc6)cs5)cc4F)ncnc3cc2OC)CC1 [Example 34, 1-(4-{[4-(4-{[4-(6-Ethylpyridin-3-yl)-1,3-thiazol-2-yl]oxy}-2-fluoroanilino)-7-methoxyquinazolin-6-yl]oxy}piperidin-1-yl)prop-2-en-1-one] | > 10000
157 | 11.3 | 7.9 | C=CC(=O)N1CCC(Oc2cc3c(Nc4ccc(Oc5ccn(-c6ccnc(Cl)c6)n5)cc4F)ncnc3cc2OC)CC1 [Example 29, 1-(4-{[4-(4-{[1-(2-Chloropyridin-4-yl)-1H-pyrazol-3-yl]oxy}-2-fluoroanilino)-7-methoxyquinazolin-6-yl]oxy}piperidin-1-yl)prop-2-en-1-one] | > 10000
114 | 8.2 | 27 | CCc1nnc(-c2cccc(Oc3ccc(Nc4ncnc5cc(OC)c(NC(=O)/C=C/CN(C)C)cc45)c(F)c3)c2)o1 [Example 41, (2E)-4-(Dimethylamino)-N-(4-{4-[3-(5-ethyl-1,3,4-oxadiazol-2-yl)phenoxy]-2-fluoroanilino)-7-methoxyquinazolin-6-yl)but-2-enamide] | 841
